ChEMBL document CHEMBL1201862, “PubChem BioAssay data set” (2004)
Calls of active or inactive are those of the source.

Experiments:
[1] = biological target: NAD-dependent protein deacylase sirtuin-5, mitochondrial (Homo sapiens, UniProt Q9NXA8); assay: SIRT5 desuccinylase inhibitors, dose response, biochemical, fluorescence imaging, cherry-pick, set 5 (AID 720591);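 also: desuccinylation of succinyl peptide AMC substrate read as fluorescence after trypsin release; potency of inhibitors that lower fluorescence and may act on trypsin instead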
[2] = inhibitors of PGC1a acetylation in cells, dose response, cell-based, cherry-picked samples (AID 720514); assay type: functional;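 also: potency may reflect raised or lowered acetylation signal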
[3] = cytotoxicity in OVCAR8 ovarian cancer cells, dose response, PAX8 project, cell-based, plate reader, dry powder samples (AID 743197); assay type: functional; conditions: OVCAR-8
[4] = non-specific cell cytotoxicity, dose response, cytotoxicity control for PAX8 inhibitor project, plate reader, dry powder samples (AID 743021); assay type: functional, cell-based
[5] = IGROV1 ovarian cancer cell cytotoxicity, dose response, PAX8 inhibitor project, plate reader, dry powder samples (AID 743043); assay type: functional, cell-based; conditions: IGROV-1
[6] = HepG2 cell cytotoxicity, dose response, cytotoxicity control, cherry-picked samples (AID 1159577); assay type: functional, cell-based
[7] = NIH:OVCAR-3 ovarian cancer cell cytotoxicity, dose response, PAX8 inhibitor project, plate reader, dry powder samples (AID 743044); assay type: functional, cell-based
Paired box protein Pax-8 = Paired box protein Pax-8 (Homo sapiens, UniProt Q06710); assay: inhibitors of PAX8-driven TPO luciferase reporter, dose response, RMG-I cells, cherry-pick (AID 687027); assay type: functional, cell-based;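 also: luciferase reporter driven by Pax8 target thyroperoxidase promoter measured by SteadyGlo luminescence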
[8] = P. falciparum Dd2 growth inhibitors, dose response, SYBR Green, cherry-picked samples (AID 1159567); assay type: functional, cell-based
[9] = A549 cell cytotoxicity, dose response, cytotoxicity control, 24 h, CellTiter-Glo luminescence, cherry-picks (AID 1053115); assay type: functional, cell-based; conditions: A549, 24 h

Sequence of NAD-dependent protein deacylase sirtuin-5, mitochondrial (Q9NXA8 whole entry): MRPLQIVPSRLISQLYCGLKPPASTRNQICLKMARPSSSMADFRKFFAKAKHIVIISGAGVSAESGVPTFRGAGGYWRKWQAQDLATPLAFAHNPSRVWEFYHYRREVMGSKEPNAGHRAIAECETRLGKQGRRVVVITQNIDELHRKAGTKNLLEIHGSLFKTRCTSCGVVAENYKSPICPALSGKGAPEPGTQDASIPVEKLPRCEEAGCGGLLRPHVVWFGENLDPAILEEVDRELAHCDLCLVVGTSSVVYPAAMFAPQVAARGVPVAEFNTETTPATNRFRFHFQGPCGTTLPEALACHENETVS
Sequence of Paired box protein Pax-8 (Q06710 whole entry): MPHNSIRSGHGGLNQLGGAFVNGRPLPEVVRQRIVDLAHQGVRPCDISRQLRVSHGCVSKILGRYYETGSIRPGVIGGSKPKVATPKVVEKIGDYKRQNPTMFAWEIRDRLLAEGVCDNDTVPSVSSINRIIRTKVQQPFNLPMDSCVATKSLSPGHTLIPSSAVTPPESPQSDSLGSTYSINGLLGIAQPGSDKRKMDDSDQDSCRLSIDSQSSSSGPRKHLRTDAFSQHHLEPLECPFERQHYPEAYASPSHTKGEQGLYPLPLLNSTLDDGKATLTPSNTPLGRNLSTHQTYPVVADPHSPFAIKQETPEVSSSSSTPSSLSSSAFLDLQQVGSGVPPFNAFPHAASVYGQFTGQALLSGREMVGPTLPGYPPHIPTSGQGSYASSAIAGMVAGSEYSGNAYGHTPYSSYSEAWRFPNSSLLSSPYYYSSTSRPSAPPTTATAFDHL

Which AC50 [1] does the source give for O=C(NC(c1ccc(Cl)cc1)c1cnccn1)C1CCN(Cc2ccc(Cl)cc2)CC1 (stereo not given) here?
Its AC50 is > 30 µM (inactive).

Which AC50 [2] does the source give for COc1ccccc1-c1ccc([C@@H]2[C@@H]3CN(S(=O)(=O)c4ccc(-c5ccccc5)cc4)C[C@H]2N3)cc1 here?
The AC50 was 9.34 µM (active).

What about the AC50 [3] of the same compound?
Its AC50 is 56 µM (active).

What about the AC50 [4] of the same compound?
The AC50 was 0.302 µM (active).

And the AC50 [5]?
The AC50 was 49.5 µM (active).

And the AC50 [6]?
The AC50 was 10.6 µM (active).

And the AC50 [7]?
The AC50 was 33.6 µM (active).

What about the AC50 (Paired box protein Pax-8) of the same compound?
The AC50 was 23.3 µM (active).

And the AC50 [8]?
Its AC50 is 2.6 µM (active).

Which AC50 [9] does the source give for O=C(Nc1ccc2c(c1)[C@@H]1C[C@@H](CC(=O)N3CCc4ccccc4C3)O[C@@H](CO)[C@@H]1O2)Nc1ccccc1F here?
Its AC50 is > 60 µM (inactive).
